Reference: US10407425B2, “Indazole inhibitors of the Wnt signal pathway and therapeutic uses thereof” (Samumed, LLC, priority 2012, dated 2019)

Tested on: Wnt activity
Assay: Wnt activity reporter assay (SP5 promoter firefly luciferase in SW480 cells)
Type: cell-based
Conditions: Homo sapiens; SW480 cells bearing SP5 promoter luciferase reporter; 24 h after compound addition; read-out: Wnt inhibition
From the text: The above synthesized compounds were screened using the assay procedure for Wnt activity described below.
Reporter cell lines can be generated by stably transducing cells of cancer cell lines (e.g., colon cancer) with a lentiviral construct that include a wnt-responsive promoter driving expression of the firefly luciferase gene.
Lentiviral constructs can be made in which the SP5 promoter, a promoter having eight TCF/LEF binding sites derived from the SP5 promoter, is linked upstream of the firefly luciferase gene. The lentiviral constructs can also include a hygromycin resistance gene as a selectable marker. The SP5 promoter construct can be used to transduce SW480 cells, a colon cancer cell line having a mutated APC gene that generates a truncated APC protein, leading to de-regulated accumulation of β-catenin.
Cultured SW480 cells bearing a reporter construct can be distributed at approximately 10,000 cells per well into 384 well multiwell plates. Compounds from a small molecule compound library can then be added to the wells in half-log dilutions using a three micromolar top concentration. A series of control wells for each cell type receive only buffer and compound solvent. Twenty-four hours after the addition of compound, reporter activity for luciferases can be assayed, for example, by addition of the BrightGlo luminescence reagent (Promega) and the Victor3 plate reader (Perkin Elmer). Readings can be normalized to DMSO only treated cells, and normalized activities can then be used in the IC50 calculations.

Structure (SMILES)	IC50 [nM]
CN1CCN(c2cncc3[nH]c(-c4n[nH]c5ccc(-c6cncc(NC(=O)C7CCCCC7)c6)cc45)nc23)CC1 [Compound 263, N-(5-(3-(7-(4-Methylpiperazin-1-yl)-3H-imidazo[4,5-c]pyridin-2-yl)-1H-indazol-5-yl)pyridin-3-yl)cyclohexanecarboxamide]	86
CCC(=O)Nc1cncc(-c2ccc3[nH]nc(-c4nc5c(-c6cccc(F)c6)cncc5[nH]4)c3c2)c1 [Compound 24, N-(5-(3-(7-(3-Fluorophenyl)-3H-imidazo[4,5-c]pyridin-2-yl)-1H-indazol-5-yl)pyridin-3-yl)propionamide]	66
Cc1ccncc1-c1ccc2[nH]nc(-c3nc4c(-c5ccc(F)cc5)cncc4[nH]3)c2c1 [Compound 99, 7-(4-Fluorophenyl)-2-(5-(4-methylpyridin-3-yl)-1H-indazol-3-yl)-3H-imidazo[4,5-c]pyridine]	> 5000
CN1CCN(c2cncc3[nH]c(-c4n[nH]c5ccc(-c6cccnc6)cc45)nc23)CC1 [Compound 4, 7-(4-methylpiperazin-1-yl)-2-(5-(pyridin-3-yl)-1H-indazol-3-yl)-3H-imidazo[4,5-c]pyridine]	13 to 40
CC(C)CC(=O)Nc1cncc(-c2ccc3[nH]nc(-c4nc5c(N6CCCCC6)cncc5[nH]4)c3c2)c1 [Compound 199, 3-Methyl-N-(5-(3-(7-(piperidin-1-yl)-3H-imidazo[4,5-c]pyridin-2-yl)-1H-indazol-5-yl)pyridin-3-yl)butanamide]	311
Nc1cncc(-c2ccc3[nH]nc(-c4nc5c(-c6ccc(F)cc6)cncc5[nH]4)c3c2)c1 [Compound 97, 5-(3-(7-(4-Fluorophenyl)-3H-imidazo[4,5-c]pyridin-2-yl)-1H-indazol-5-yl)pyridin-3-amine]	1
CC(C)CC(=O)Nc1cncc(-c2ccc3[nH]nc(-c4nc5c(-c6ccc(F)cc6)cncc5[nH]4)c3c2)c1 [Compound 12, N-(5-(3-(7-(4-fluorophenyl)-3H-imidazo[4,5-c]pyridin-2-yl)-1H-indazol-5-yl)pyridin-3-yl)-3-methylbutanamide]	6 to 8
O=C(Nc1cncc(-c2ccc3[nH]nc(-c4nc5c(-c6ccoc6)cncc5[nH]4)c3c2)c1)C1CCCCC1 [Compound 333, N-(5-(3-(7-(Furan-3-yl)-3H-imidazo[4,5-c]pyridin-2-yl)-1H-indazol-5-yl)pyridin-3-yl)cyclohexanecarboxamide]	26
FC1(F)CCN(Cc2cncc(-c3ccc4[nH]nc(-c5nc6c(N7CCCCC7)cncc6[nH]5)c4c3)c2)C1 [Compound 342, 2-(5-(5-((3,3-Difluoropyrrolidin-1-yl)methyl)pyridin-3-yl)-1H-indazol-3-yl)-7-(piperidin-1-yl)-3H-imidazo[4,5-c]pyridine]	20
FC1(F)CCN(Cc2cncc(-c3ccc4[nH]nc(-c5nc6c(-c7ccsc7)cncc6[nH]5)c4c3)c2)C1 [Compound 346, 2-(5-(5-((3,3-Difluoropyrrolidin-1-yl)methyl)pyridin-3-yl)-1H-indazol-3-yl)-7-(thiophen-3-yl)-3H-imidazo[4,5-c]pyridine]	2
CCCC(=O)Nc1cncc(-c2ccc3[nH]nc(-c4nc5c(N6CCCCC6)cncc5[nH]4)c3c2)c1 [Compound 214, N-(5-(3-(7-(Piperidin-1-yl)-3H-imidazo[4,5-c]pyridin-2-yl)-1H-indazol-5-yl)pyridin-3-yl)butyramide]	42
CC(C)(C)C(=O)Nc1cncc(-c2ccc3[nH]nc(-c4nc5c(-c6ccoc6)cncc5[nH]4)c3c2)c1 [Compound 319, N-(5-(3-(7-(Furan-3-yl)-3H-imidazo[4,5-c]pyridin-2-yl)-1H-indazol-5-yl)pyridin-3-yl)pivalamide]	5
O=C(Nc1cncc(-c2ccc3[nH]nc(-c4nc5c(N6CCCCC6)cncc5[nH]4)c3c2)c1)C1CCC1 [Compound 217, N-(5-(3-(7-(Piperidin-1-yl)-3H-imidazo[4,5-c]pyridin-2-yl)-1H-indazol-5-yl)pyridin-3-yl)cyclobutanecarboxamide]	39
CN(C)Cc1cncc(-c2ccc3[nH]nc(-c4nc5c(-c6cncc(F)c6)cncc5[nH]4)c3c2)c1 [Compound 16, 1-(5-(3-(7-(5-fluoropyridin-3-yl)-3H-imidazo[4,5-c]pyridin-2-yl)-1H-indazol-5-yl)pyridin-3-yl)-N,N-dimethylmethanamine]	164 to 200
CC(C)CC(=O)Nc1cncc(-c2ccc3[nH]nc(-c4nc5c(-c6cc(F)cc(NCCN(C)C)c6)cncc5[nH]4)c3c2)c1 [Compound 349, N-(5-(3-(7-(3-(2-(Dimethylamino)ethylamino)-5-fluorophenyl)-3H-imidazo[4,5-c]pyridin-2-yl)-1H-indazol-5-yl)pyridin-3-yl)-3-methylbutanamide]	22
c1ncc(-c2ccc3[nH]nc(-c4nc5c(N6CCCCC6)cncc5[nH]4)c3c2)cc1CN1CCCC1 [Compound 211, 7-(Piperidin-1-yl)-2-(5-(5-(pyrrolidin-1-ylmethyl)pyridin-3-yl)-1H-indazol-3-yl)-3H-imidazo[4,5-c]pyridine]	420
CN(C)Cc1cncc(-c2ccc3[nH]nc(-c4nc5c(-c6ccsc6)cncc5[nH]4)c3c2)c1 [Compound 301, N,N-Dimethyl-1-(5-(3-(7-(thiophen-3-yl)-3H-imidazo[4,5-c]pyridin-2-yl)-1H-indazol-5-yl)pyridin-3-yl)methanamine]	69
CC(C)(C)CC(=O)Nc1cncc(-c2ccc3[nH]nc(-c4nc5c(-c6cccc(F)c6)cncc5[nH]4)c3c2)c1 [Compound 90, N-(5-(3-(7-(3-Fluorophenyl)-3H-imidazo[4,5-c]pyridin-2-yl)-1H-indazol-5-yl)pyridin-3-yl)-3,3-dimethylbutanamide]	12
Cc1ccncc1-c1ccc2[nH]nc(-c3nc4c(-c5ccncc5)cncc4[nH]3)c2c1 [Compound 154, 2-(5-(4-Methylpyridin-3-yl)-1H-indazol-3-yl)-7-(pyridin-4-yl)-3H-imidazo[4,5-c]pyridine]	373
CC(C)Nc1cncc(-c2ccc3[nH]nc(-c4nc5c(-c6ccccc6F)cncc5[nH]4)c3c2)c1 [Compound 124, 5-(3-(7-(2-Fluorophenyl)-3H-imidazo[4,5-c]pyridin-2-yl)-1H-indazol-5-yl)-N-isopropylpyridin-3-amine]	1
c1cc(-c2cncc3[nH]c(-c4n[nH]c5ccc(-c6cncc(CN7CCCC7)c6)cc45)nc23)ccn1 [Compound 163, 7-(Pyridin-4-yl)-2-(5-(5-(pyrrolidin-1-ylmethyl)pyridin-3-yl)-1H-indazol-3-yl)-3H-imidazo[4,5-c]pyridine]	296
CCC(=O)Nc1cncc(-c2ccc3[nH]nc(-c4nc5c(-c6ccccn6)cncc5[nH]4)c3c2)c1 [Compound 174, N-(5-(3-(7-(Pyridin-2-yl)-3H-imidazo[4,5-c]pyridin-2-yl)-1H-indazol-5-yl)pyridin-3-yl)propionamide]	3
CCC(=O)Nc1cncc(-c2ccc3[nH]nc(-c4nc5c(-c6ccsc6)cncc5[nH]4)c3c2)c1 [Compound 289, N-(5-(3-(7-(Thiophen-3-yl)-3H-imidazo[4,5-c]pyridin-2-yl)-1H-indazol-5-yl)pyridin-3-yl)propionamide]	2
CCCCC(=O)Nc1cncc(-c2ccc3[nH]nc(-c4nc5c(-c6ccoc6)cncc5[nH]4)c3c2)c1 [Compound 329, N-(5-(3-(7-(Furan-3-yl)-3H-imidazo[4,5-c]pyridin-2-yl)-1H-indazol-5-yl)pyridin-3-yl)pentanamide]	4
O=C(Nc1cncc(-c2ccc3[nH]nc(-c4nc5ccncc5[nH]4)c3c2)c1)C1CCCCC1 [Compound 286, N-(5-(3-(3H-Imidazo[4,5-c]pyridin-2-yl)-1H-indazol-5-yl)pyridin-3-yl)cyclohexanecarboxamide]	569
Nc1cncc(-c2ccc3[nH]nc(-c4nc5c(-c6ccsc6)cncc5[nH]4)c3c2)c1 [Compound 291, 5-(3-(7-(Thiophen-3-yl)-3H-imidazo[4,5-c]pyridin-2-yl)-1H-indazol-5-yl)pyridin-3-amine]	2
c1cc(-c2cncc3[nH]c(-c4n[nH]c5ccc(-c6cncc(CN7CCCCC7)c6)cc45)nc23)ccn1 [Compound 164, 2-(5-(5-(Piperidin-1-ylmethyl)pyridin-3-yl)-1H-indazol-3-yl)-7-(pyridin-4-yl)-3H-imidazo[4,5-c]pyridine]	> 6000
O=C(Nc1cncc(-c2ccc3[nH]nc(-c4nc5c(-c6ccc(F)cc6)cncc5[nH]4)c3c2)c1)c1ccccc1 [Compound 104, N-(5-(3-(7-(4-Fluorophenyl)-3H-imidazo[4,5-c]pyridin-2-yl)-1H-indazol-5-yl)pyridin-3-yl)benzamide]	7
O=C(Nc1cncc(-c2ccc3[nH]nc(-c4nc5c(-c6ccoc6)cncc5[nH]4)c3c2)c1)C1CC1 [Compound 330, N-(5-(3-(7-(Furan-3-yl)-3H-imidazo[4,5-c]pyridin-2-yl)-1H-indazol-5-yl)pyridin-3-yl)cyclopropanecarboxamide]	739
Fc1ccccc1-c1cncc2[nH]c(-c3n[nH]c4ccc(-c5cncc(CN6CCCCC6)c5)cc34)nc12 [Compound 127, 7-(2-Fluorophenyl)-2-(5-(5-(piperidin-1-ylmethyl)pyridin-3-yl)-1H-indazol-3-yl)-3H-imidazo[4,5-c]pyridine]	14
